Assay results published in patent publication US9321756B2, “Azole compounds as PIM inhibitors” (priority 2011, dated 2016).
Like-named read-outs stand apart in the source and are kept apart here.

Legend:
[1] = molecular target: full length recombinant Pim-2 (Homo sapiens (Human), UniProt Q9P1W9); assay: Pim enzyme assay (HTRF, phosphorylation of biotinylated-BAD (S112) peptide), Pim-2; assay type: biochemical; conditions: read-out: Pim2_IC50
[2] = molecular target: full length recombinant Pim-1 (Homo sapiens (Human), UniProt P11309); assay: Pim enzyme assay (HTRF, phosphorylation of biotinylated-BAD (S112) peptide), Pim-1; assay type: biochemical
Chain of full length recombinant Pim-1 (P11309 whole entry): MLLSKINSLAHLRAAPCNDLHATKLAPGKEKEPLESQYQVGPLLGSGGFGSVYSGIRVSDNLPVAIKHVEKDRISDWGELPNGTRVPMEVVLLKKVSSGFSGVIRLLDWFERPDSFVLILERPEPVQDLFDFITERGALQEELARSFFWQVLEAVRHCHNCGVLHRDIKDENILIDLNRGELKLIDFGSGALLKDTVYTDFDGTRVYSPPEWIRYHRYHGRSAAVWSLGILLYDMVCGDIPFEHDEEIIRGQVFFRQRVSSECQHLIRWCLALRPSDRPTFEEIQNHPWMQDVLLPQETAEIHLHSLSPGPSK

KMS-12-BM myeloma cells = assay: Pim cell assay KMS12 (phospho-BAD and total BAD); assay type: cell-based; conditions: Homo sapiens, 2 h
Procedure: The assay for determination of the antiproliferative activity of multiple Pim inhibitors in the KMS-12-BM myeloma cells measures levels of phospho-BAD and total BAD. It was conducted as follows: […] The cells were then incubated overnight at 37° C., 5% CO2. […] This dilution in DMSO was then diluted again into cell growth medium. […] The cell plates were then incubated with compound for 2 hours at 37° C., 5% CO2. After a two h incubation, the compound-containing medium was removed. […] The cell plates containing lysis buffer were then immediately stored at -70° C. These prepared lysates were then assayed for phospho and total BAD according to the manufacturer's protocols (Meso Scale Diagnostics, Cat#[…]-3 & #[…]-3). The plates were read on the MSD Sector Imager 6000, and results were calculated according to the assay protocols ((% Phosphoprotein=((2×Phospho signal)/(Phospho signal+Total signal))×100)).

[3] = HTRF, 10-point curve, high dose 1 uM, 45 min at RT
[4] = HTRF, 10-point curve, high dose 1 uM, 2 h at RT, read-out: Pim_1_IC50

Chain of full length recombinant Pim-2 (Q9P1W9 whole entry): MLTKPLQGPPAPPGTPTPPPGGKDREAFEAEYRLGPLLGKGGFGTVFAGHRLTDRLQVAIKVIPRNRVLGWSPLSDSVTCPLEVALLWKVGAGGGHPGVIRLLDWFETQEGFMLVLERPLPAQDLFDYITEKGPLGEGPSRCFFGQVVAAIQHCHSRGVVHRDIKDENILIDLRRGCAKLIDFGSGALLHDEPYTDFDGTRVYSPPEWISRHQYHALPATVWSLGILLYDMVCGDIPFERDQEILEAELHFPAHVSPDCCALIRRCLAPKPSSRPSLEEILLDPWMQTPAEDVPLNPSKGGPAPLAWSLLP

Structure (SMILES) | IC50 [1, 3] [nM] | IC50 [2, 4] [nM] | IC50 (KMS-12-BM myeloma cells; read-out: KMS12_IC50) [µM] | IC50 [2] [nM] | IC50 [1] [nM] | IC50 (KMS-12-BM myeloma cells; read-out: KMS12_IC50 (uM)) [µM]
CC(C)Nc1nnc(-c2cc3c(-c4nccc(C5CC5)n4)c[nH]c3cc2F)o1 [Example 279, 5-(3-(4-cyclopropyl-2-pyrimidinyl)-6-fluoro-1H-indol-5-yl)-N-(1-methylethyl)-1,3,4-oxadiazol-2-amine] | 1.88 | 2.38 | 0.746 | – | – | –
CC(C)Nc1nc(-c2c[nH]c3ccc(-c4nnc(NC(C)C)o4)cc23)cc(=O)[nH]1 [Example 288, 2-(isopropylamino)-6-(5-(5-(isopropylamino)-1,3,4-oxadiazol-2-yl)-1H-indol-3-yl)pyrimidin-4(3H)-one] | 14.3 | 2.44 | 4.2 | – | – | –
CC(C)Nc1nnc(-c2ccc3[nH]cc(-c4cc(=O)[nH]c(C5CC5)n4)c3c2)o1 [Example 300, 2-cyclopropyl-6-(5-(5-((1-methylethyl)amino)-1,3,4-oxadiazol-2-yl)-1H-indol-3-yl)-4(3H)-pyrimidinone] | 2.24 | 1.2 | 1.44 | – | – | –
CC(C)Nc1nnc(-c2ccc3[nH]cc(-c4ncc(C(N)=O)c(C5CC5)n4)c3c2)o1 [Example 281, 4-cyclopropyl-2-(5-(5-((1-methylethyl)amino)-1,3,4-oxadiazol-2-yl)-1H-indol-3-yl)-5-pyrimidinecarboxamide] | 2.15 | 1.19 | 1.28 | – | – | –
CC(C)Nc1nnc(-c2cc3c(-c4cncc(C5CC5)n4)c[nH]c3cc2F)o1 [Example 280, 5-(3-(6-cyclopropyl-2-pyrazinyl)-6-fluoro-1H-indol-5-yl)-N-(1-methylethyl)-1,3,4-oxadiazol] | 8.04 | – | 3.83 | 4.71 | – | –
CC(C)Nc1nccc(-c2c[nH]c3ccc(-c4nnc(NC(C)C)o4)cc23)n1 [Example 287, N-isopropyl-5-(3-(2-(isopropylamino)pyrimidin-4-yl)-1H-indol-5-yl)-1,3,4-oxadiazol-2-amine] | – | 4.15 | – | – | 11.1 | 1.56
CC(C)Nc1nnc(-c2ccc3[nH]cc(-c4ccnc(C5CC5)n4)c3c2)o1 [Example 301, 5-(3-(2-cyclopropyl-4-pyrimidinyl)-1H-indol-5-yl)-N-(1-methylethyl)-1,3,4-oxadiazol-2-amine] | 4.65 | 2.54 | 0.945 | – | – | –
CC(C)Nc1nnc(-c2ccc3[nH]cc(NC(=O)C4CC4)c3c2)o1 [Example 291, N-(5-(5-(isopropylamino)-1,3,4-oxadiazol-2-yl)-1H-indol-3-yl)cyclopropanecarboxamide] | 25.6 | 53.1 | 1.44 | – | – | –
